From PubChem BioAssay (NCI)
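How tested: cells in 96-well plates exposed to compound for 48 hours at five concentrations. TGI: total growth inhibition.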

Legend:
Assay in all cases: NCI tumour cell line growth inhibition, 48 h
KM20L2 colon = system: KM20L2 colon
HOP-18 NSCLC = system: HOP-18 NSCLC
DMS 114 small cell lung = system: DMS 114 small cell lung
DLD-1 colon = system: DLD-1 colon
LXFL 529 NSCLC = system: LXFL 529 NSCLC
M19-MEL melanoma = system: M19-MEL melanoma
XF 498 CNS = system: XF 498 CNS
RXF-631 renal = system: RXF-631 renal

| SMILES | TGI (KM20L2 colon) [µM] | TGI (HOP-18 NSCLC) [µM] | TGI (DMS 114 small cell lung) [µM] | TGI (DLD-1 colon) [µM] | TGI (LXFL 529 NSCLC) [µM] | TGI (M19-MEL melanoma) [µM] | TGI (XF 498 CNS) [µM] | TGI (RXF-631 renal) [µM] |
| --- | --- | --- | --- | --- | --- | --- | --- | --- |
| CC(C)(C)N=NC(C)(C)N=C=O | > 100 | > 100 | > 100 | > 100 | > 100 | > 100 | > 100 |  |
| CC[C@]12C=CCN3CCC4(c5cc([C@@]6(C(=O)OC)CC7CN(CCc8c6[nH]c6ccccc86)CC6CCCCC67)c(OC)cc5N(C)C4[C@](O)(C(=O)OC)C1OC(C)=O)[C@@H]32 (stereo partly specified) | < 0.01 |  | < 0.01 | 13.2 | 12.7 | 17.6 | 9.12 |  |
| O=[N+]([O-])c1ccc(-c2csc(=[N+]3CCCCC3)s2)cc1 | > 100 | > 100 | 8.03 | > 100 | > 100 | > 45.9 | 48.1 | > 100 |
| c1cncc(CSc2nc3ccccc3nc2-c2cccs2)c1 |  | > 100 |  | > 100 |  | > 100 | > 100 |  |
| CCCCN(CCCC)CC(C(C)=O)C(c1ccccc1)c1c(O)c2ccccc2oc1=O (stereo unspecified) | > 100 | > 100 | > 100 | > 100 | > 100 | > 100 | > 100 | > 100 |
| CN(C)CCCNC(=O)N/N=C/c1ccccc1 |  | > 100 | > 100 | > 100 |  | > 100 | > 100 |  |
| O=C1Nc2cc(F)ccc2C1=O | > 100 | > 100 | > 100 | > 100 | > 100 | > 100 | > 100 |  |
| CC(C)(C)c1ccnc(N=C2N=C(Nc3cc(C(C)(C)C)ccn3)c3ccccc32)c1 | 59.6 | 59.6 |  | > 100 | > 100 | > 100 | 38.6 |  |
